According to patent publication US8642622B2, “Piperidinyl compound as a modulator of chemokine receptor activity” (Bristol-Myers Squibb Company, priority 2010, dated 2014):
Values belong to the compound of their own block, whether it stands above or below them.

Key:
[1] = Single-dose pharmacokinetics in dogs; format: in vivo; details: dog
Procedure: Serial blood samples were collected for all studies at various time points post dose (0.17 (or 0.25 for oral), 0.5, 0.75, 1, 2, 4, 6, 8 and 24 h, for example). Plasma samples were analyzed by LC-MS/MS.

hERG potassium channel = molecular target: T1, hERG potassium channel (Homo sapiens, UniProt Q12809); test: hERG patch clamp assay; format: cell-based; details: HEK-293 cells stably expressing hERG, pH 7.4, HEK-293, protein-free buffer, read-out: hERG channel, % inh
T1 construct: expressed in transfected cells
Procedure: Whole-cell patch-clamp was used to directly measure hERG tail currents in HEK-293 cells stably expressing the cloned hERG potassium channel α subunit. Effects of compounds were calculated by measuring inhibition of peak tail current. Experiments were carried out using an aqueous buffer with pH 7.4 at room temperature. There was no protein in the assay buffer. The test concentrations reported are nominal free drug levels. Data is reported as percent inhibition at a fixed concentration.

[2] = Human liver microsomal metabolism, Assay Conditions B; format: in vitro ADME
Procedure: Test compound is received as 20 mM in DMSO. Compound is diluted to create a 300 μM acetonitrile (ACN) solution containing 1.5% DMSO, which is then used as a 100× stock for incubation with microsomes. Each compound is tested in duplicate separately in each of three species in the Metabolic Stability-Human, Rat, Mouse assay suite or individual species in the Metabolic Stability-Dog or Metabolic Stability-Monkey suites. Compound, NADPH and liver microsome solutions are combined for incubation in three steps: • 1. 450 μL of liver microsome suspension, protein concentration of 1 mg/mL in 100 mM NaPi, pH 7.4, 6.6 mM MgCl2 buffer, are pre-warmed at 37° C. • 2. […] of 300 μM compound (98.5% CAN, 1.5% DMSO) is added to the same tube. • 3. The reaction is initiated by the addition of 50 μL of pre-warmed 5 mM NADPH solution in 100 mM NaPi, pH 7.4.
Reaction components are mixed well and 150 μL removed to quench/stop solution immediately for the zero-minute time point. Reactions are incubated at 37° C. for 10 minutes and then an additional 150 μL removed from incubation. Aliquots removed are combined with 300 μL ACN which contains 100 μM DMN as a UV standard for detection.
Quenched mixtures are centrifuged at 1500 rpm (˜500×g) in an Allegra X-12 centrifuge, SX4750 rotor (Beckman Coulter Inc., Fullerton, Calif.) for fifteen minutes to pellet denatured microsomes. A volume of 110 μl of supernatant extract, containing the mixture of parent compound and its metabolites, is then transferred to a separate 96-well plate for UV-LC/MS-MS analysis to determine the percent of parent compound that is remaining in the mixture.

Protein binding, rabbit = format: in vitro ADME
[3] = Single-dose pharmacokinetics in rats; format: in vivo; details: male, Sprague-Dawley, rat, plasma; for bioavailability: po
Procedure: Serial blood samples were collected for all studies from the jugular vein at various time points post dose (0.17 (or 0.25 for oral), 0.5, 0.75, 1, 2, 4, 6, 8 and 24 h, for example). Plasma samples were analyzed by LC-MS/MS.
Additional studies evaluating suspensions of crystalline drug substance in aqueous medium were performed as described above.

Protein binding, human = format: in vitro ADME
[4] = Human liver microsomal metabolism, Assay Conditions A; format: in vitro ADME; details: 0.5 μM compound, 10 minutes, 37° C.
Procedure: Test compound is received as a 3.5 mM stock solution in 100 percent DMSO. Compound is diluted to create a 50 μM acetonitrile (ACN) solution containing 1.4% DMSO, which is then used as a 100× stock for incubation with microsomes. Each compound is tested in duplicate separately in each of three species in the Metabolic Stability-Human, Rat, and Mouse assay suite or as individual species in the Metabolic Stability-Dog or Metabolic Stability-Monkey suites. Compound, NADPH and liver microsome solutions are combined for incubation in three steps:
152 μL of liver microsome suspension, protein concentration of 1.1 mg/mL in 100 mM NaPi, pH 7.4, 6.6 mM MgCl2 buffer, is pre-warmed at 37° C.
• 1) 1.7 μL of 50 μM compound (98.6% ACN, 1.4% DMSO) is added to the same tube and pre-incubated at 37° C. for 5 minutes. • 2) The reaction is initiated by the addition of 17 μL of pre-warmed 10 mM NADPH solution in 100 mM NaPi, pH 7.4. • 3) Reaction components are mixed well, and 75 μL are immediately transferred into 150 μl quench/stop solution (zero-time point, To). Reactions are incubated at 37° C. for 10 minutes and then an additional 75 μL aliquot is transferred into 150 μL quench solution. Acetonitrile containing 100 μM DMN (a UV standard for injection quality control), is used as the quench solution to terminate metabolic reactions. • 4) Quenched mixtures are centrifuged at 1500 rpm (˜500×g) in an Allegra X-12 centrifuge, SX4750 rotor (Beckman Coulter Inc., Fullerton, Calif.) for fifteen minutes to pellet denatured microsomes. A volume of 90 μL of supernatant extract, containing the mixture of parent compound and its metabolites, is then transferred to a separate 96-well plate for UV-LC/MS-MS analysis to determine the percent of parent compound that is remaining in the mixture.

T1 sequence (Q12809 whole entry): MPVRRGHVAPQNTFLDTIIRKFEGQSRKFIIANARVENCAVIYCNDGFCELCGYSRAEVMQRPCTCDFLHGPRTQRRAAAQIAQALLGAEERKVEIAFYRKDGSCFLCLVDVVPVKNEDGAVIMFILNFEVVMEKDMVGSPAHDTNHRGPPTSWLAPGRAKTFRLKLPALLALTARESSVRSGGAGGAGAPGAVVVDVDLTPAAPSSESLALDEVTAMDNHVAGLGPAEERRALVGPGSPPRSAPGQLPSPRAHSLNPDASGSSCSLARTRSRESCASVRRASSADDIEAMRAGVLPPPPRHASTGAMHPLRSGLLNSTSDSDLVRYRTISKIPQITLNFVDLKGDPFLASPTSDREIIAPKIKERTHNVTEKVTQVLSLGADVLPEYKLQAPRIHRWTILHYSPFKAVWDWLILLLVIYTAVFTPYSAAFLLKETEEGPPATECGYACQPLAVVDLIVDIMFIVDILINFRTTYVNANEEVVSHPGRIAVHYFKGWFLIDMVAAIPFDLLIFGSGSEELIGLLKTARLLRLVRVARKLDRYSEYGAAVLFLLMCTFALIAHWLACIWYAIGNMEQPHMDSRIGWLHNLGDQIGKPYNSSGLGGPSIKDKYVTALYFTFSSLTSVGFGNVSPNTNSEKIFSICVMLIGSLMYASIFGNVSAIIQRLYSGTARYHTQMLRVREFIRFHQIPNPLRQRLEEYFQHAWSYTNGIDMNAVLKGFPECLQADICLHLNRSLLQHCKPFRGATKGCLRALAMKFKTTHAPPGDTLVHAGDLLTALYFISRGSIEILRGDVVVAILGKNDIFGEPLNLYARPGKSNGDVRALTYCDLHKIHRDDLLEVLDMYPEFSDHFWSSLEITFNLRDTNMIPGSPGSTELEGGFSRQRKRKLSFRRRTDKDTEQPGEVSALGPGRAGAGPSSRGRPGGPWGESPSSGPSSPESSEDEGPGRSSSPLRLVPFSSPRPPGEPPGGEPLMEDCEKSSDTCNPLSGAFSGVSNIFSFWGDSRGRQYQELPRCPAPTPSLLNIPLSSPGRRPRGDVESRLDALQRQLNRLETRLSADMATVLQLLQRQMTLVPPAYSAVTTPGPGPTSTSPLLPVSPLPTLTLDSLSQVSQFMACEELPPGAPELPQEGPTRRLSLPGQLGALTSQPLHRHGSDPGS

SMILES: CC(C)[C@@H](NC(=O)[C@@H]1CCC(F)(F)C1)C(=O)N1CC[C@](O)(c2ccc(Cl)cc2)[C@@](C)(O)C1 [Compound I, (R)—N—((R)-1-((3S,4S)-4-(4-chlorophenyl)-3,4-dihydroxy-3-methylpiperidin-1-yl)-3-methyl-1-oxobutan-2-yl)-3,3-difluorocyclopentanecarboxamide]
- decrease of in vivo clearance (CL) relative to the compared compounds [1]: 8-13 fold
- clearance ([1]; male, beagle, plasma, intravenous): 0.036 L/h/kg
- bioavailability ([1]; male, beagle, plasma, oral solution, read-out: dog oral bioavailability when dosed as solution): 82%
- inhibition at 30 µM (hERG potassium channel): 22%
- Human Liver Microsomal Metabolism % remaining (Assay Conditions B) ([2]; 3 μM compound, 10 minutes, 37° C.): 96% (B)
- % of compound remaining in the human liver microsome metabolism assay ([2]; assay conditions not given): 100%
- fraction unbound (Protein binding, rabbit): 0.46
- clearance ([3]; intravenous): 1.56 L/h/kg
- bioavailability ([3]; crystalline suspension in aqueous medium, read-out: Relative bioavailability when dosed as a crystalline suspension): 84%
- bioavailability ([3]; oral solution, read-out: Rat oral bioavailability when dosed as solution): 43%
- fraction unbound (Protein binding, human): 0.32

- Human Liver Microsomal Metabolism % remaining (Assay Conditions A) [4]: 13% (A)
SMILES: CC(C)COC(=O)N[C@@H](C(=O)N1CC[C@](O)(c2ccc(Cl)cc2)C(C)(C)C1)C(C)C [Example 1083]
